EPA's ToxValDB 9.5 (doi:10.2903/j.efsa.2008.120r)
≈ marks a conversion by molar mass, not a printed value.

Experiments:
Canidae = conditions: oral, Dog Other, body weight
Apis mellifera = conditions: acute, mortality
Colinus virginianus = conditions: oral; for LD50: mortality
Daphnia magna = conditions: chronic/long-term; duration: 21 days; reproduction
Mus musculus = conditions: acute; mortality
Anas platyrhynchos = conditions: oral; for LD50: mortality
Coturnix japonica = conditions: reproduction developmental
Tagia sp. = conditions: acute; duration: 14 days; mortality
Typhlodromus pyri = test: LR50; higher = less toxic; conditions: not reported; mortality
[1] = short-term, duration: 5 days, feed

Q: For COc1cc(OC)nc(NC(=O)NS(=O)(=O)c2ncccc2C(=O)N(C)C)n1 [Nicosulfuron], which NOAEL (Canidae; chronic, duration: 1 years) is on record?
A: 200 mg/kg-day

Q: What about the NOAEL (Canidae; short-term, duration: 28 days) of the same molecule?
A: 200 mg/kg-day

Q: What about the NOAEL (Canidae; subchronic, duration: 90 days) of the same molecule?
A: 200 mg/kg-day

Q: And the LD50 (Apis mellifera; dermal)?
A: 76 µg/piece

Q: And the LC50 (Apis mellifera; oral, feed)?
A: > 1000 µg/piece

Q: What about the LD50 (Colinus virginianus; acute, duration: 5 days, diet) of the same molecule?
A: > 1600 mg/kg-day

Q: What about the NOEL (Colinus virginianus; acute) of the same molecule?
A: 2000 mg/kg-day

Q: And the LD50 (Colinus virginianus; acute)?
A: > 2000 mg/kg-day

Q: And the NOEL (Colinus virginianus; short-term, duration: 5 days, diet)?
A: 1600 mg/kg-day

Q: And the LD50 (Rattus norvegicus; acute, mortality)?
A: > 5000 mg/kg-day

Q: What about the NOAEL (Rattus norvegicus; chronic, duration: 2 years, hematological) of the same molecule?
A: 199 mg/kg-day

Q: And the NOAEL (Rattus norvegicus; reproduction developmental, M)?
A: 3860 mg/kg-day

Q: And the NOAEL (Rattus norvegicus; reproduction developmental, mortality)?
A: 4400 mg/kg-day

Q: And the NOEC (Daphnia magna)?
A: 5.2 mg/L

Q: What about the LD50 (Mus musculus) of the same molecule?
A: > 5000 mg/kg-day

Q: What about the NOEL (Anas platyrhynchos; acute, unspecified) of the same molecule?
A: 2000 mg/kg-day

Q: And the LD50 (Anas platyrhynchos; acute, unspecified)?
A: > 2000 mg/kg-day

Q: And the NOEL (Anas platyrhynchos; [1])?
A: 911 mg/kg-day

Q: And the LD50 (Anas platyrhynchos; [1])?
A: > 911 mg/kg-day

Q: And the NOEC (Coturnix japonica)?
A: 171 mg/kg-day

Q: What about the LC50 (Tagia sp.) of the same molecule?
A: > 1000 mg/kg

Q: What about the LC50 (Oncorhynchus mykiss; acute, duration: 96 hours, mortality) of the same molecule?
A: 65.7 µg/mL (≈ 160 µM)

Q: And the NOEC (Oncorhynchus mykiss; chronic/long-term, duration: 28 days, growth)?
A: 10 mg/L

Q: And the LR50 (Typhlodromus pyri)?
A: 60 g/ha
